Data from US20040152713A1, “Methods for treating joint pain or improving sleep using an estrogen agonist/antagonist” (Pfizer Inc., priority 2003, published 2004).

Assays:
postmenopausal women [1] = test: Randomized, double blind, placebo controlled study of oral lasofoxifene on sleep (Sleep Problems subscale of Women's Health Questionnaire); type: in vivo, human; conditions: 3 months assessment
Protocol: The Effects of Oral Administration of (−)-cis-6-phenyl-5-[4-(2-pyrrolidin-1-yl-ethoxy)-phenyl]-5,6,7,8-tetrahydro-naphthalene-2-ol, D-tartrate salt (lasofoxifene) on Sleep: A Randomized, Double Blind, Placebo Controlled Study
(§1) Subjects: A double blind, randomized, placebo controlled trial of approximately three hundred and seventy five women between the ages of 50 and 74 years of age inclusive, and 1-20 years postmenopausal was carried out. The subjects selected for the study were ambulatory females between the ages of 50 and 74 years of age (inclusive) who gave written informed consent for participation in the study. […] The subject's Screening/Baseline mean L1-L4 lumbar bone mineral density (BMD) of the spine must be less than +2.0 standard deviations and greater than −2.5 standard deviations of age-and sex-matched bone mineral density (Z-score) as determined by standards of the manufacturer of the Dual X-ray Absorptiometer (DXA) used in the determination of that BMD. […] The subjects' endometrial thickness were typically <5 mm as determined by transvaginal ultrasound (TVU) and subjects outside of this criteria were asked to undergo additional baseline evaluation following initial randomization. […]
Assessment Method: Patient self-report recorded on Sleep Problems subscale of standardized questionnaire, Women's Health Questionnaire (WHQ; Hunter, M. 1992. Psychology and Health, 7: 45-54).

postmenopausal women [2] = test: Randomized, double blind, placebo controlled study of oral lasofoxifene on joint pain (visual analog scale pain score); type: in vivo, human; conditions: 3 months assessment, self-reported VAS 100 mm scale (0 mm=no pain, 100 mm=worst pain)
Protocol: as §1, with “The Effects of Oral Administration of (−)-cis-6-phenyl-5-[4-(2-pyrrolidin-1-yl-ethoxy)-phenyl]-5,6,7,8-tetrahydro-naphthalene-2-ol, D-tartrate salt (Iasofoxifene) on Joint Pain: A Randomized, Double Blind, Placebo Controlled Study Subjects:” for “Subjects:”

O=C(O)C(O)C(O)C(=O)O.Oc1ccc2c(c1)CC[C@H](c1ccccc1)[C@@H]2c1ccc(OCCN2CCCC2)cc1 [Lasofoxifene, (−)-cis-6-phenyl-5-[4-(2-pyrrolidin-1-yl-ethoxy)-phenyl]-5,6,7,8-tetrahydro-naphthalene-2-ol, D-tartrate salt]
Improvement in sleep (less sleep disturbance) vs. placebo, in words (postmenopausal women [1]; lasofoxifene 0.4 mg treatment group vs. placebo): statistically significant improvement in sleep
Mean Change from Baseline (WHQ Sleep Problems subscale) (postmenopausal women [1]; lasofoxifene 0.4 mg/day oral, patient self-report): −0.09
Joint Pain Changes Resulting From Treatment (Mean Change from Baseline) (postmenopausal women [2]; lasofoxifene 0.25 mg/day oral): −8.16
Joint Pain Changes Resulting From Treatment (Mean Change from Baseline) (postmenopausal women [2]; lasofoxifene 1.0 mg/day oral): 4.52
